# Assays:
# [1] = tested on: ARE of rat glutathione S-transferase Ya subunit gene; test: Assay for ARE-dependent transcriptional activation activity (luciferase reporter pGL3-ARE in rat H9c2 cells); assay type: cell-based; conditions: rat H9c2 cells transfected with pGL3-ARE; about 24 hours incubation with compound; compound-free group = 100%
# Procedure: Rat H9c2 cells were suspended in Dulbecco's Modified Eagle Medium (10% FBS, D-MEM) supplemented with 5% heat-inactivated fetal calf serum to 7×10^4 cells/ml and a 18 ml aliquot was seeded on a Petri dish for cell culture, followed by incubation in 5% CO2 at 37° C. for about 16 hours. ARE ([…]; SEQ ID NO: 1) of rat glutathione S-transferase Ya subunit gene was incorporated into pGL3-Promoter Vector (manufactured by Promega Corp.) and the resulting luciferase reporter vector pGL3-ARE was transfected to the cells using FuGENE6 (Transfection reagent: manufactured by Roche), followed by additional incubation for about 7 hours. After completion of the incubation, the cells were recovered and suspended in 10% FBS-containing D-MEM to 1×10^5 cells/ml. A 100 μl aliquot was seeded on each well of a 96-well plate, followed by incubation in 5% CO2 at 37° C. for about 17 hours. Next, the cells were washed with D-MEM to remove serum, and D-MEM containing a test compound (compound obtained in EXAMPLE 2, 8, 10, 12, 22 or 23) was added to the cells, followed by incubation in 5% CO2 at 37° C. for about 24 hours. After completion of the incubation, 801 each of Steady-Glo Reagent (manufactured by Promega Corp.) was added to each well. After allowing to stand at room temperature for 40 minutes, fluorescence levels by luciferase were determined using a WALLAC ARVO SX (manufactured by Perkin-Elmer). Taking the emitted luminescence of test compound-free group as 100%, the ARE-dependent transcriptional activation was shown in terms of the concentration of test compound, which caused to emit the luminescence of 200% (EC200: μM).
# [2] = biological target: T1, human PPARα (Homo sapiens, UniProt Q07869); test: PPARα assay: PPRE-dependent transcriptional activation activity (luciferase reporter in COS-1 cells transfected with PPARα and RXRα); assay type: cell-based; conditions: COS-1 cells transfected with PPARα and RXRα expression vectors and pGL3-PPRE4-Tk; about 42 hours incubation with compound; compound-free group = 100%
# T1 construct: expressed in transfected cells; host or cells: COS-1 cells
# T1 sequence (Q07869 1-468): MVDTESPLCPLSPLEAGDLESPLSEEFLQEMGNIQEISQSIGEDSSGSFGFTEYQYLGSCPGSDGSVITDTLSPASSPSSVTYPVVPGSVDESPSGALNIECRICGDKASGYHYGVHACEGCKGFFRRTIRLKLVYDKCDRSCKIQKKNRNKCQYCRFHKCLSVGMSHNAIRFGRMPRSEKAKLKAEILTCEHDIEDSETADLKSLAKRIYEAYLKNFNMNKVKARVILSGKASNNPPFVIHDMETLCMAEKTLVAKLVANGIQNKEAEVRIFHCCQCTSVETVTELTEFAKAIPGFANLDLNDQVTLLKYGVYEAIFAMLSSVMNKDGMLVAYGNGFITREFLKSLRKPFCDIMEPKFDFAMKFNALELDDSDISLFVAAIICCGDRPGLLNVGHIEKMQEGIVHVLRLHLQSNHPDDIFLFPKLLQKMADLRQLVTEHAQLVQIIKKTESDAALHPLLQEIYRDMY
# T1 sequence (P19793 1-462 partner): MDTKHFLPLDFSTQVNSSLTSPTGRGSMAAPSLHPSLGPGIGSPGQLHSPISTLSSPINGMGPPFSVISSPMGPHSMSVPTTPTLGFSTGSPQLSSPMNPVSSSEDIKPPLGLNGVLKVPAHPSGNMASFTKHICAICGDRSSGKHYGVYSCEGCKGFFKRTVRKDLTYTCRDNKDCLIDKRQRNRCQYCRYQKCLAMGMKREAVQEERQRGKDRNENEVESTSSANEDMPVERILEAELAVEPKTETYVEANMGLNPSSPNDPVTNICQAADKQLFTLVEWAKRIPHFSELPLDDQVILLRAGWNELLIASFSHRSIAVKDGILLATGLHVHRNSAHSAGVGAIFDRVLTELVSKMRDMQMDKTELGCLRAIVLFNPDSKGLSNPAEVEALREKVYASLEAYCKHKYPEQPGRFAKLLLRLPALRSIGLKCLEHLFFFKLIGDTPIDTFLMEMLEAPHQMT
# Procedure: COS-1 cells were suspended in Dulbecco's Modified Eagle Medium (10% FBS, D-MEM) supplemented with 10% heat-inactivated fetal calf serum to 1×10^5 cells/ml and a 25 ml aliquot was seeded on a 75 cm^2 cell culture flask, followed by incubation in 5% CO2 at 37° C. for about 15 hours. PPARα expression vector pMCMV-neo-rPPARα and RXRα expression vector pMCMV-neo-rRXRα, in which human PPARα gene and human RXRα gene were inserted into pMCMV-neo (manufactured by Promega Corp.) respectively, and Luciferase reporter vector pGL3-PPRE4-Tk, in which four PPREs (aggacaaaggtca; SEQ ID NO: 2) were inserted into pGL3-Promoter Vector (manufactured by Promega Corp.) in tandem, were transfected to the cells using FuGENE6 (Transfection reagent: manufactured by Roche), and then incubation for about 24 hours. After completion of the incubation, the cells were recovered and suspended in 0.1% bovine serum albumin (Sigma)-containing D-MEM to 5×10^4 cells/ml. A 100 μl aliquot was seeded on each well of a 96-well plate, followed by incubation in 5% CO2 at 37° C. for about 4 hours. Next, D-MEM containing a test compound (compound obtained in EXAMPLE 2, 8, 10 or 12) was added thereto, followed by incubation in 5% CO2 at 37° C. for about 42 hours. After completion of the incubation, a 801 aliquot was added to each well of Steady-Glo Reagent (manufactured by Promega Corp.). After allowing to stand for 30 minutes at room temperature, fluorescence levels by luciferase were determined using a WALLAC ARVO SX (manufactured by Perkin-Elmer). Taking the emitted luminescence of test compound-free group as 100%, the PPRE-dependent transcriptional activation was shown in terms of the concentration of test compound, which caused to emit the luminescence of 200% (EC200: μM).
compound,measurement,setting,value
"CS(=O)(=O)c1cc(CCC(=O)O)nc(-c2nc(=O)c3ccc(Cl)cc3s2)c1 [EXAMPLE 8, 3-[6-(7-Chloro-4-oxo-4H-1,3-benzothiazin-2-yl)-4-(methylsulfonyl)pyridin-2-yl]propanoic acid]","EC200 (concentration of test compound causing luminescence of 200% of the test compound-free group), ARE-dependent transcriptional activation",[1],0.94 µM
same,"EC200 (concentration of test compound causing luminescence of 200% of the test compound-free group), PPRE-dependent transcriptional activation",[2],>100 µM
same,melting point,,228.8 to 228.9 °C
"Cc1ccc2c(=O)nc(-c3cc(S(C)(=O)=O)cc(CCC(=O)O)n3)sc2c1 [EXAMPLE 12, 3-[6-(7-Methyl-4-oxo-4H-1,3-benzothiazin-2-yl)-4-(methylsulfonyl)pyridin-2-yl]propanoic acid]","EC200 (concentration of test compound causing luminescence of 200% of the test compound-free group), ARE-dependent transcriptional activation",[1],1.6 µM
same,"EC200 (concentration of test compound causing luminescence of 200% of the test compound-free group), PPRE-dependent transcriptional activation",[2],>100 µM
same,melting point,,238.9 to 239.1 °C
"Cc1ccc2c(=O)nc(-c3cc(S(C)(=O)=O)cc(CCC(=O)OC(C)(C)C)n3)sc2c1 [compound 11, Tert-butyl 3-[6-(7-methyl-4-oxo-4H-1,3-benzothiazin-2-yl)-4-(methylsulfonyl)pyridin-2-yl]propanoate]",melting point,,178 to 178.4 °C
"CS(=O)(=O)c1cc(CCC(=O)OCC(O)CO)nc(-c2nc(=O)c3ccc(Cl)cc3s2)c1 (stereo not shown) [compound 21, 2,3-Dihydroxypropyl 3-[6-(7-chloro-4-oxo-4H-1,3-benzothiazin-2-yl)-4-(methylsulfonyl)pyridin-2-yl]propanoate]",melting point,,240 to 241 °C
"CCOC(=O)CCc1cc(S(C)(=O)=O)cc(-c2nc(=O)c3ccc(Cl)cc3s2)n1 [EXAMPLE 13, Ethyl 3-[6-(7-chloro-4-oxo-4H-1,3-benzothiazin-2-yl)-4-(methylsulfonyl)pyridin-2-yl]propanoate]",melting point,,240 to 240.2 °C
"CCCOC(=O)CCc1cc(S(C)(=O)=O)cc(-c2nc(=O)c3ccc(Cl)cc3s2)n1 [compound 19, Propyl 3-[6-(7-chloro-4-oxo-4H-1,3-benzothiazin-2-yl)-4-(methylsulfonyl)pyridin-2-yl]propanoate]",melting point,,235.4 to 235.5 °C
"CCN(CC)CCOC(=O)CCc1cc(S(C)(=O)=O)cc(-c2nc(=O)c3ccc(Cl)cc3s2)n1 [EXAMPLE 22, 2-(Diethylamino)ethyl 3-[6-(7-chloro-4-oxo-4H-1,3-benzothiazin-2-yl)-4-(methylsulfonyl)pyridin-2-yl]propanoate]","EC200 (concentration of test compound causing luminescence of 200% of the test compound-free group), ARE-dependent transcriptional activation",[1],0.61 µM
same,melting point,,150.5 to 151.5 °C
"COC(=O)CCc1cc(S(C)(=O)=O)cc(-c2nc(=O)c3ccc(Cl)cc3s2)n1 [EXAMPLE 17, Methyl 3-[6-(7-chloro-4-oxo-4H-1,3-benzothiazin-2-yl)-4-(methylsulfonyl)pyridin-2-yl]propanoate]",melting point,,203.4 to 203.6 °C
"CCN(CC)C(=O)COC(=O)CCc1cc(S(C)(=O)=O)cc(-c2nc(=O)c3ccc(Cl)cc3s2)n1 [EXAMPLE 23, 2-(Diethylamino)-2-oxoethyl 3-[6-(7-chloro-4-oxo-4H-1,3-benzothiazin-2-yl)-4-(methylsulfonyl)pyridin-2-yl]propanoate]","EC200 (concentration of test compound causing luminescence of 200% of the test compound-free group), ARE-dependent transcriptional activation",[1],0.6 µM
"CS(=O)(=O)c1cc(CCC(=O)O)nc(-c2nc(=O)c3ccccc3s2)c1 [EXAMPLE 2, 3-[6-(4-Oxo-4H-1,3-benzothiazin-2-yl)-4-(methylsulfonyl)pyridin-2-yl]propanoic acid]","EC200 (concentration of test compound causing luminescence of 200% of the test compound-free group), ARE-dependent transcriptional activation",[1],1.3 µM
same,"EC200 (concentration of test compound causing luminescence of 200% of the test compound-free group), PPRE-dependent transcriptional activation",[2],>100 µM
"CC(C)(C)OC(=O)CCc1cc(S(C)(=O)=O)cc(-c2nc(=O)c3ccc(Cl)cc3s2)n1 [compound 7, Tert-butyl 3-[6-(7-chloro-4-oxo-4H-1,3-benzothiazin-2-yl)-4-(methylsulfonyl)pyridin-2-yl]propanoate]",melting point,,184.3 to 184.5 °C
"CS(=O)(=O)c1cc(CCC(=O)O)nc(-c2nc(=O)c3ccc(F)cc3s2)c1 [EXAMPLE 10, 3-[6-(7-fluoro-4-oxo-4H-1,3-benzothiazin-2-yl)-4-(methylsulfonyl)pyridin-2-yl]propanoic acid]","EC200 (concentration of test compound causing luminescence of 200% of the test compound-free group), ARE-dependent transcriptional activation",[1],1.7 µM
same,"EC200 (concentration of test compound causing luminescence of 200% of the test compound-free group), PPRE-dependent transcriptional activation",[2],>100 µM
same,melting point,,235.8 to 236.2 °C
"CC(C)(C)OC(=O)CCc1cc(S(C)(=O)=O)cc(-c2nc(=O)c3ccc(F)cc3s2)n1 [compound 9, Tert-butyl 3-[6-(7-fluoro-4-oxo-4H-1,3-benzothiazin-2-yl)-4-(methylsulfonyl)pyridin-2-yl]propanoate]",melting point,,177.6 to 178 °C
"Cc1oc(=O)oc1COC(=O)CCc1cc(S(C)(=O)=O)cc(-c2nc(=O)c3ccc(Cl)cc3s2)n1 [compound 20, (5-Methyl-2-oxo-1,3-dioxolen-4-yl)methyl 3-[6-(7-chloro-4-oxo-4H-1,3-benzothiazin-2-yl)-4-(methylsulfonyl)pyridin-2-yl]propanoate]",melting point,,183.1 to 183.2 °C

# — patent publication US20090029975A1, “1,3-BENZOTHIAZINONE DERIVATIVE AND USE THEREOF” (TAKEDA PHARMACEUTICAL COMPANY LIMITED, priority 2005, published 2009)
